{"source": "patent US11312721B2", "about": "(priority 2015, dated 2022)", "key": {"aged-impaired (AI) rats [1]": {"system": "aged-impaired (AI) rats", "assay": "Morris water maze behavioral task", "assay_type": "in vivo, rat", "conditions": "100 μg ICV", "description": "The effects of 6,6 dimethyl-3-(3-hydroxypropyl)thio-1-(thiazol-2-yl)-6,7-dihydro-2-benzothiophen-4(5H)-one on the in vivo spatial memory retention of aged-impaired (AI) rats were assessed in a Morris water maze behavioral task. A water maze is a pool surrounded with a novel set of patterns relative to the maze.\nCognitively impaired aged rats were implanted unilaterally with a cannula into the lateral ventricle. Stereotaxic coordinates were 1.0 mm posterior to bregma, 1.5 mm lateral to midline, and 3.5 mm ventral to the skull surface. After about a week of recovery, the rats were pre-trained in a water maze for 2 days (6 trials per day) to locate a submerged escape platform hidden underneath the surface of the pool, in which the escape platform location varied from day to day. No intracerebroventricular (ICV) infusion was given during pre-training.\nAfter pre-training, rats received ICV infusion of either 100 μg 6,6 dimethyl-3-(3-hydroxypropyl)thio-1-(thiazol-2-yl)-6,7-dihydro-2-benzothiophen-4(5H)-one (n=6) in 5 μl DMSO or vehicle DMSO (n=5) 40 min prior to water maze training and testing. Training consisted of 8 trials per day for 2 days where the hidden escape platform remained in the same location. Rats were given 60 seconds to locate the platform with a 60 seconds inter-trial interval. The rats were given a probe test (120 seconds) 24 hr. after the end of training where the escape platform was removed. During the training, there were 4 blocks, where each block had 4 training trials.\nDuring a test trial 24 hr. after training, the escape platform was removed. The search/swim pattern of the rats was used to measure whether the rats remember where the escape platform was located during pre-trial training in order to test for the long-term memory of the rats. In this trial, “target annulus” is a designated area 1.5 times the size of the escape platform around the area where the platform was located during pre-trial training. “Opposite annulus” is a control area of the same size as the size of the target annulus, which is located opposite to the target annulus in the pool. If the rats had good long term memory, they would tend to search in the area surrounding the location where the platform was during the pre-trial training (i.e., the “target” annulus; and not the “opposite” annulus). “Time in annulus” is the amount of time in seconds that the rat spent in the target or opposite annulus area. “Number (#) of crossings” in annulus is the number of times the rat swam across the target or opposite annulus area."}, "[2]": {"target": "T1, α5β3γ2 GABAA receptors (Ltk cells) (Homo sapiens, UniProt P18507+P31644)", "T1 construct": "membranes", "T1 sequence (P31644 32-462)": "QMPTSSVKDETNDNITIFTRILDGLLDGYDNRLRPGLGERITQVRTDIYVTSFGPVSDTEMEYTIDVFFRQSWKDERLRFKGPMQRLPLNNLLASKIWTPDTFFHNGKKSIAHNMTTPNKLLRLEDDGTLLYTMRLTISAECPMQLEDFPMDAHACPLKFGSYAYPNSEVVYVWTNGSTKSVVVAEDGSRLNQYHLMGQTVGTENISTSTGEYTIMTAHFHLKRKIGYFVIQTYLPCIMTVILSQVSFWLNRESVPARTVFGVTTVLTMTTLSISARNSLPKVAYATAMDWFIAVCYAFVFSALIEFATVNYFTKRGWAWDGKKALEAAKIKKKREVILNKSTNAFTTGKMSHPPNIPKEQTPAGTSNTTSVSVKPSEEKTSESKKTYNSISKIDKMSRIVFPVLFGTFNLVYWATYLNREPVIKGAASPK", "T1 sequence (P28472 26-473 partner)": "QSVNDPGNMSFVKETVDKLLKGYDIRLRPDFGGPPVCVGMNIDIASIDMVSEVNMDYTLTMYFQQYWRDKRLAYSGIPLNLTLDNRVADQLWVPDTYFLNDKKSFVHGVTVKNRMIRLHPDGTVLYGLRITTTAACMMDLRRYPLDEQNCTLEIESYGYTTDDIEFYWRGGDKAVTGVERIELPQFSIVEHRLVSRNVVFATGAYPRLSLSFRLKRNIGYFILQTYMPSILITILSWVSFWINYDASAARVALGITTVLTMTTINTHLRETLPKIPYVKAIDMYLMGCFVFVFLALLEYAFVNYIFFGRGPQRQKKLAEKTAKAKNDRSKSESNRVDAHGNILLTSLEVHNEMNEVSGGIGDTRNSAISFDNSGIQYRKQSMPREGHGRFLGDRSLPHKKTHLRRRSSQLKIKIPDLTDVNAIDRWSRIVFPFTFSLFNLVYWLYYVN", "T1 sequence (P18507 40-475)": "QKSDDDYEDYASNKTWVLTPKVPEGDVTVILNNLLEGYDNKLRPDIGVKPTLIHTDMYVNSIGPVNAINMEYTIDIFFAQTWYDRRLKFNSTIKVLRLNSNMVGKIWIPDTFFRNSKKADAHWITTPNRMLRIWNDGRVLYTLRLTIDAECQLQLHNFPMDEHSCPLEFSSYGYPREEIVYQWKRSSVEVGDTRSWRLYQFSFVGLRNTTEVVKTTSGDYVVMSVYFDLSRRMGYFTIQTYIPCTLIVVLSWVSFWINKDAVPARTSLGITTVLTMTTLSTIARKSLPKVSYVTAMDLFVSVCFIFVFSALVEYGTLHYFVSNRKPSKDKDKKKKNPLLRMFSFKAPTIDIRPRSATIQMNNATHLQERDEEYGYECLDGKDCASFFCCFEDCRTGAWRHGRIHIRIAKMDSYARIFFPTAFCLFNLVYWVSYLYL", "assay": "Binding activity on GABAAR: inhibition of [3H]Ro15-1788 binding", "description": "Tissue culture and Membrane Preparation: The binding was performed on Ltk cells stably expressing GABAA receptors: α1β1γ2, α2β3γ2, α3β3γ2 and α5β3γ2 (provided by Merck Co., NJ, USA). Cells were seeded in 100 mm culture plates in DMEM/F12 medium containing 10% serum and antibiotics in 5% CO2 and allowed to grow for 1-2 days. GABAAR expression was then induced by dexamethasone as follows: 0.5 μM for 1 day for α5 containing and 2 μM for 3 days for α1, α2 and α3 containing GABAARs. After induction, cells were collected by scraping into Dulbecco's Phosphate buffered saline (DPBS, pH 7.4, Invitrogen, Carlsbad, Calif., USA) and centrifuged at 150×g for 10 min. The pellet was washed twice by re-suspension and centrifugation. The cell pellets from at least 5 different preps were combined, suspended in the binding assay buffer (50 mM KH2PO4; 1 mM EDTA; 0.2 M KCl, pH 7.4) and membranes prepared by sonication (3-5 times, 30 sec) using Branson Sonifier 150 (G. Heinmann, Germany). Protein content was determined using BCA assay (Bio-Rad Labs, Reinach, Switzerland) with Bovine Serum Albumin (Sigma Aldrich, St. Louis, Mo., USA) as the standard. Aliquots were prepared and stored at −20° C. for further use in binding assays.\nLigand Binding: Saturation binding curves were obtained by incubating membranes with increasing concentrations (0.01-8 nM) of [^3H]Ro15-1788 (Flumazepil, 75-85 Ci/mmol, PerkinElmer, MA, USA), with nonspecific binding measured in the presence of 10 μM diazepam.\nAll binding assays were performed for 1 h at 4° C. in assay buffer. The total assay volume was 0.5 ml containing 0.2 mg/ml protein for α5 and 0.4 mg/ml for α1, α2, and α3 containing GABAAR membranes. Incubations were terminated by filtration through GF/B filters using a 24-Cell Harvestor (Brandel, Gaithersburg, Md., USA) followed by 3 washes with ice-cold assay buffer. Filters were transferred to scintillation vials, 5 ml scintillation liquid added, vortex-mixed and kept in dark. Next day, radioactivity was obtained using a scintillation counter (Beckman Coulter, Brea, Calif., USA). All assays were performed in triplicate.\nData Analyses: Saturation and inhibition curves were obtained using GraphPad Prism software (GraphPad Software, Inc., CA, USA)."}, "GABAA receptors (α5β2γ2)": {"target": "T2, GABAA receptors (α5β2γ2) (Homo sapiens, UniProt P18507+P31644)", "T2 construct": "expressed in transfected cells", "T2 sequence (P31644 32-462)": "as the sequence (P31644 32-462) above", "T2 sequence (P47870 25-512 partner limits assumed)": "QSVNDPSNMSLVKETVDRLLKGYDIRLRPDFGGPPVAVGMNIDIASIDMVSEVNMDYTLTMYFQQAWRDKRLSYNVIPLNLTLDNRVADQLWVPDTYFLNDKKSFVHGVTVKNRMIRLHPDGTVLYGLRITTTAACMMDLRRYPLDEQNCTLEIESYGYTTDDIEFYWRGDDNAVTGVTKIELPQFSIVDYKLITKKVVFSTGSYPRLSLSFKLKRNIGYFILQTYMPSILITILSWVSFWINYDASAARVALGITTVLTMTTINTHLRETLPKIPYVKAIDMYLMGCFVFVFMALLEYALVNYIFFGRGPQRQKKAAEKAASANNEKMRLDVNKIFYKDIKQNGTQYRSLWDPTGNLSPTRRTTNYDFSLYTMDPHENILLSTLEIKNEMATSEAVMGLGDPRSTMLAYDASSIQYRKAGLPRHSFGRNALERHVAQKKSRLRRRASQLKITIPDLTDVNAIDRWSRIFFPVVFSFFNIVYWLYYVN", "T2 sequence (P18507 40-475)": "as the sequence (P18507 40-475) above", "assay": "Positive allosteric modulator activity: potentiation of EC20 GABA current in oocytes", "assay_type": "cell-based", "conditions": "read-out: GABA α5 functional potentiation", "description": "On day 1, 1 ng/32 nL of GABAA α5β2γ2 cDNA was injected into one oocyte. Test starts on day 2. The cDNA injected to the oocytes was a mix of alpha, beta and gamma, their ratio is 1:1:10 (by weight) and the total weight of the mixed 3 subunits to be injected in one oocyte was 1 ng in 32 nl volume. The injected oocytes can also be tested on day 3. In such case, the cDNA amount injected to the oocytes should be reduced by 20%.\n1). 8 oocytes were placed in 8 chambers of OpusXpress and superfused with Modified Barth's Saline (MBS) at 3 mL/min. Glass electrodes back-filled with 3M KCl (0.5-3 megaohms) were used.\n1). Repeat the above steps 1), 2) and 3) in the control test.\n2). […] Divide Itest by IGABA to obtain potentiation (%).\n3). Discard all tested oocytes, new oocytes were used and the above steps 1) and 2) were repeated to test second concentration of the same compound. Each oocyte was used for only one concentration test for a single test compound. The steps were repeated for other test compounds."}, "GABAA α5 receptor": {"target": "T3, GABAA α5 receptor (Rattus norvegicus, UniProt P19969)", "T3 construct": "from tissue", "T3 sequence (P19969 32-464 limits assumed)": "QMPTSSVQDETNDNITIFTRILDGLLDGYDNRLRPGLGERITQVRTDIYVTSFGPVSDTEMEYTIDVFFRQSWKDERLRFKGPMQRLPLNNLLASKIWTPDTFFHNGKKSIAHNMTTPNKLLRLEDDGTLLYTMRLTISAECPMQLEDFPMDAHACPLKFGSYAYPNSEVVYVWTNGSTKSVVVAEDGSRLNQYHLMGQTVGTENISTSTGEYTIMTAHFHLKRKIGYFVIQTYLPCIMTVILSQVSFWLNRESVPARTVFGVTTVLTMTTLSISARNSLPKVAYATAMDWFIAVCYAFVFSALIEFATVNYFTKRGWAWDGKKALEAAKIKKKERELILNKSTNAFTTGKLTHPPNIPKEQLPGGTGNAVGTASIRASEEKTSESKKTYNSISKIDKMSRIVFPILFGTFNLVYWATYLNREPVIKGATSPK", "assay": "GABAA α5 receptor occupancy in vivo with Ro 15-4513 tracer", "design": "species or system Long Evans rats", "conditions": "for effect on Ro 15-4513 binding in hippocampus and cerebellum: 0.01-10 mg/kg", "from_the_text": "Food and water were available ad libitum."}, "MAM-treated rats": {"system": "MAM-treated rats", "conditions": "cited from earlier work"}, "aged-impaired (AI) rats [3]": {"system": "aged-impaired (AI) rats", "assay": "Radial Arm Maze (RAM) behavioral task, spatial memory retention", "assay_type": "in vivo, rat", "conditions": "four-hour delay RAM", "description": "The effects of methyl 3,5-diphenylpyridazine-4-carboxylate on the in vivo spatial memory retention of aged-impaired (AI) rats were assessed in a Radial Arm Maze (RAM) behavioral task using vehicle control and four different dosage levels of methyl 3,5-diphenylpyridazine-4-carboxylate ([…]). RAM behavioral tasks were performed on eight AI rats. All five treatment conditions (vehicle and four dosage levels) were tested on all eight rats.\nThe RAM apparatus used consisted of eight equidistantly-spaced arms. An elevated maze arm (7 cm width×75 cm length) projected from each facet of an octagonal center platform (30 cm diameter, 51.5 cm height). Clear side walls on the arms were 10 cm high and were angled at […] to form a trough. A food well (4 cm diameter, 2 cm deep) was located at the distal end of each arm. Froot Loops™ (Kellogg Company) were used as rewards. Blocks constructed of Plexiglas™ (30 cm height×12 cm width) could be positioned to prevent entry to any arm. Numerous extra maze cues surrounding the apparatus were also provided.\nThe AI rats were initially subjected to a pre-training test (Chappell et al. Neuropharmacology 37: 481-487, 1998). The pre-training test consisted of a habituation phase (4 days), a training phase on the standard win-shift task (18 days) and another training phase (14 days) in which a brief delay was imposed between presentation of a subset of arms designated by the experimenter (e.g., 5 arms available and 3 arms blocked) and completion of the eight-arm win-shift task (i.e., with all eight arms available).\nIn the habituation phase, rats were familiarized to the maze for an 8-minute session on four consecutive days. In each of these sessions, food rewards were scattered on the RAM, initially on the center platform and arms and then progressively confined to the arms. After this habituation phase, a standard training protocol was used, in which a food pellet was located at the end of each arm. Rats received one trial each day for 18 days. Each daily trial terminated when all eight food pellets had been obtained or when either 16 choices were made or 15 minutes had elapsed. After completion of this training phase, a second training phase was carried out in which the memory demand was increased by imposing a brief delay during the trial. At the beginning of each trial, three arms of the eight-arm maze were blocked. Rats were allowed to obtain food on the five arms to which access was permitted during this initial “information phase” of the trial. Rats were then removed from the maze for 60 seconds, during which time the barriers on the maze were removed, thus allowing access to all eight arms. Rats were then placed back onto the center platform and allowed to obtain the remaining food rewards during this “retention test” phase of the trial. […]"}, "[4]": {"conditions": "probe test 24 hr. after training"}}, "data": [{"smiles": "CC1(C)CC(=O)c2c(SCCCO)sc(-c3nccs3)c2C1", "note": "[6,6 dimethyl-3-(3-hydroxypropyl)thio-1-(thiazol-2-yl)-6,7-dihydro-2-benzothiophen-4(5H)-one]", "values": [{"measurement": "time to find the escape platform", "setting": "aged-impaired (AI) rats [1]; block 1 (beginning of training)", "result": "about 24 seconds"}, {"measurement": "time to find the escape platform", "setting": "aged-impaired (AI) rats [1]; block 4 (end of training)", "result": "about 9.6 seconds"}, {"measurement": "number of crossings of target annulus compared with opposite annulus", "setting": "aged-impaired (AI) rats [1]; [4]", "result": "crossed the “target annulus” more often"}, {"measurement": "time in target annulus compared with opposite annulus", "setting": "aged-impaired (AI) rats [1]; [4]", "result": "spent significantly more time in the target annulus"}]}, {"smiles": "C#Cc1ncn2c1Cn1c(COC)nnc1-c1cc(Cl)ccc1-2", "note": "[Compound 256]", "values": [{"measurement": "Ki", "setting": "[2]", "result": "< 99", "unit": "nM"}, {"measurement": "activation at 0.1 µM", "setting": "GABAA receptors (α5β2γ2)", "result": "20 to 49", "unit": "%"}]}, {"smiles": "COc1ccc2c(c1)-n1nncc1Cc1c(-c3nc(C(C)C)no3)ncn1-2", "note": "[Compound 257]", "values": [{"measurement": "Ki", "setting": "[2]", "result": "< 99", "unit": "nM"}, {"measurement": "activation at 0.1 µM", "setting": "GABAA receptors (α5β2γ2)", "result": "20 to 49", "unit": "%"}]}, {"smiles": "COCc1nnc2n1Cc1c(C3=N[C@@H](c4ccccc4)CO3)ncn1-c1ccc(Cl)cc1-2", "note": "[Compound 264]", "values": [{"measurement": "Ki", "setting": "[2]", "result": "< 99", "unit": "nM"}, {"measurement": "activation at 0.1 µM", "setting": "GABAA receptors (α5β2γ2)", "result": "20 to 49", "unit": "%"}]}, {"smiles": "CCOCc1nnc2n1Cc1c(C3=N[C@H](c4ccccc4)CO3)ncn1-c1ccc(Cl)cc1-2", "note": "[Compound 271]", "values": [{"measurement": "Ki", "setting": "[2]", "result": "< 99", "unit": "nM"}, {"measurement": "activation at 0.1 µM", "setting": "GABAA receptors (α5β2γ2)", "result": "> 50", "unit": "%"}]}, {"smiles": "COc1ccc2c(c1)-n1nncc1Cc1c(C3=N[C@H](c4ccccc4)CO3)ncn1-2", "note": "[Compound 290]", "values": [{"measurement": "Ki", "setting": "[2]", "result": "< 99", "unit": "nM"}, {"measurement": "activation at 0.1 µM", "setting": "GABAA receptors (α5β2γ2)", "result": "20 to 49", "unit": "%"}]}, {"smiles": "COCc1nnc2n1Cc1c(C#Cc3ccccc3C)ncn1-c1ccc(Cl)cc1-2", "note": "[Compound 293]", "values": [{"measurement": "Ki", "setting": "[2]", "result": "< 99", "unit": "nM"}, {"measurement": "activation at 0.1 µM", "setting": "GABAA receptors (α5β2γ2)", "result": "20 to 49", "unit": "%"}]}, {"smiles": "CCOC(=O)c1ncn2c1Cn1c(C)nnc1-c1cc(OC)ccc1-2", "note": "[Ethyl 3-methoxy-7-methyl-9H-benzo[f]imidazo[1,5-a][1,2,4]tri]", "values": [{"measurement": "effect on Ro 15-4513 binding in hippocampus and cerebellum", "setting": "GABAA α5 receptor; i.v.", "result": "blocked the binding of Ro154513 in the hippocampus but did not affect binding of Ro15413 in the cerebellum"}]}, {"smiles": "CCOC(=O)c1ncn2c1CN(C)C(=O)c1cc(N=[N+]=[N-])ccc1-2", "note": "[Ro 15-4513]", "values": [{"measurement": "tracer level, hippocampus compared with cerebellum", "setting": "GABAA α5 receptor; 1 μg/kg, i.v. tracer after vehicle", "result": "> 5", "unit": "fold"}]}, {"smiles": "C#Cc1ccc2c(c1)C(c1ccccc1F)=N[C@H](C)c1c(C(=O)OCC)ncn1-2", "note": "[SH-053-2′F—R—CH3]", "values": [{"measurement": "number of spontaneously active DA neurons in the VTA", "setting": "MAM-treated rats; MAM rats, systemic or infused into the ventral HPC", "result": "reduces the number of spontaneously active DA neurons in the ventral tegmental area (VTA) of MAM rats to levels observed in saline-treated rats"}, {"measurement": "locomotor response to amphetamine", "setting": "MAM-treated rats; MAM-treated rats", "result": "is reduced"}, {"measurement": "cortical-evoked responses of HPC neurons", "setting": "MAM-treated rats; saline-treated and MAM-treated animals", "result": "diminished cortical-evoked responses"}]}, {"smiles": "CCOC(=O)c1ncn2c1Cn1c(C)nnc1-c1cc(OC)ccc1-2", "note": "[ethyl 3-methoxy-7-methyl-9H-benzo[f]imidazo[1,5-a][1,2,4]tri]", "values": [{"measurement": "memory performance relative to vehicle control", "setting": "aged-impaired (AI) rats [3]; 3 mg/kg, t(7)=4.13, p=0.004, or t(7)=3.08, p=0.018", "result": "significantly improved memory performance"}, {"measurement": "memory performance relative to vehicle control", "setting": "aged-impaired (AI) rats [3]; 10 mg/kg, t(7)=2.82, p=0.026", "result": "significantly improved memory performance"}, {"measurement": "effect on Ro 15-4513 binding in hippocampus and cerebellum", "setting": "GABAA α5 receptor; i.v.", "result": "reduced Ro 15-4513 binding in hippocampus, without affecting cerebellum levels of Ro 15-4513"}, {"measurement": "GABAA α5 receptor occupancy", "setting": "GABAA α5 receptor; 10 mg/kg, i.v.", "result": "> 90", "unit": "%"}]}]}
